In ChEMBL document CHEMBL5338815 (J Med Chem, 2023):
Calls of active or inactive are those of the source. The calls are words filed in the database; no cut-off is given here.

Key:
[1] = biological target: T1, Histone-lysine N-methyltransferase EHMT2 (Homo sapiens, UniProt Q96KQ7); test: Inhibition of G9a (unknown origin) by AlphaLISA assay
T1 sequence (Q96KQ7 whole entry): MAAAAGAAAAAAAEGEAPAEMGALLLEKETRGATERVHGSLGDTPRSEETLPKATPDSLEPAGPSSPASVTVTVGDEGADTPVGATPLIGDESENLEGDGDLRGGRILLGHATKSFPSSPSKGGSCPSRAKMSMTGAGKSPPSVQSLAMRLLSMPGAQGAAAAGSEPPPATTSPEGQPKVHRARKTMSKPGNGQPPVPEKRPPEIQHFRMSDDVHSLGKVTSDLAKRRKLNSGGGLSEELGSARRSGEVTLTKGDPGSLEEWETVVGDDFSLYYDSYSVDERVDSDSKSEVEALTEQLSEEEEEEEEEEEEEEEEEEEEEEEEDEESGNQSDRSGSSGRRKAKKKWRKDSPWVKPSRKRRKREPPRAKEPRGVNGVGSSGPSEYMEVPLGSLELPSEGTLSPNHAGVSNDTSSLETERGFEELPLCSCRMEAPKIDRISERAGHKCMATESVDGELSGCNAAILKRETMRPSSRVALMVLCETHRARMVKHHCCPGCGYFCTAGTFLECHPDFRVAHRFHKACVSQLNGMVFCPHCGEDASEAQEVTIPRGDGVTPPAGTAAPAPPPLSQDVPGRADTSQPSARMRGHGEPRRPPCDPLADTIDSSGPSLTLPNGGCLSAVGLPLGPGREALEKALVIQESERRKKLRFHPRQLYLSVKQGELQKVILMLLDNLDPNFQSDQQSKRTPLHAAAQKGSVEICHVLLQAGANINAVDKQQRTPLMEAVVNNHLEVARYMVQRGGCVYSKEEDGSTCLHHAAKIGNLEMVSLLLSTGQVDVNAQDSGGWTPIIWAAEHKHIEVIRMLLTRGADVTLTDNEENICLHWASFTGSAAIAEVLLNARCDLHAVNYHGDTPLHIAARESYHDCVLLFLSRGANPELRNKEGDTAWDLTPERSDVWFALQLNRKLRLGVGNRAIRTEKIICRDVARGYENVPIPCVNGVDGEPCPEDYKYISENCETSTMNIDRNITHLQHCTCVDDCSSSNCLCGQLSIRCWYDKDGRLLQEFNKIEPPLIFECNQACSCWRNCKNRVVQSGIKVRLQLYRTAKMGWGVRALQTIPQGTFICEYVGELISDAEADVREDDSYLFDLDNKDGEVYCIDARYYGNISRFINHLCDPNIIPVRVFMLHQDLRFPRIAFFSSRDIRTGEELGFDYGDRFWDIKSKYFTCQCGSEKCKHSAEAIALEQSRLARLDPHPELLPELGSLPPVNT

PANC-1 [2] = test: Antiproliferative activity against human PANC-1 cells assessed as cell viability measured after 24 hrs by CCK-8 assay; assay type: functional, cell-based; conditions: PANC-1, 24 h
[3] = Metabolic stability in mouse liver microsomes assessed as half life at 0.1 uM measured upto 60 mins by LC-MS/MS analysis; assay type: ADME, Microsome
[4] = biological target: T2, Histone-arginine methyltransferase CARM1 (Homo sapiens, UniProt Q86X55); test: Inhibition of PRMT4 (unknown origin)
T2 sequence (Q86X55 whole entry): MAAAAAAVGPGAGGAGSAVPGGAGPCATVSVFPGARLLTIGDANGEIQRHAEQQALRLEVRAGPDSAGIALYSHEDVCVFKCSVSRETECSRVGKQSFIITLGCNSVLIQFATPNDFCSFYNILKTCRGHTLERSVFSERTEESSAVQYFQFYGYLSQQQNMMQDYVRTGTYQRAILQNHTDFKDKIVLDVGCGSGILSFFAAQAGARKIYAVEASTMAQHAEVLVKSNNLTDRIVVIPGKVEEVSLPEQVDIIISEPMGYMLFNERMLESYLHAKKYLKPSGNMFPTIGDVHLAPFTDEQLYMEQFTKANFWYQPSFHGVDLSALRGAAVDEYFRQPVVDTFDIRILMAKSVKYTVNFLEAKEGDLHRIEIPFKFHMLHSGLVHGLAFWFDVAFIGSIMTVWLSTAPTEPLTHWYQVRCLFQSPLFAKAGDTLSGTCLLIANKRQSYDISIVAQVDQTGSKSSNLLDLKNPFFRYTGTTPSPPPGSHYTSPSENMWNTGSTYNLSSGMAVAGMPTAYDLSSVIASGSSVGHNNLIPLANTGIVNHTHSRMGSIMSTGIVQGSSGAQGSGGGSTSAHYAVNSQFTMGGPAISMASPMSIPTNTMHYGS

[5] = biological target: Histone-lysine N-methyltransferase 2A (Homo sapiens, UniProt Q03164); test: Inhibition of MLL1 (unknown origin)
[6] = biological target: Histone-lysine N-methyltransferase 2B (Homo sapiens, UniProt Q9UMN6); test: Inhibition of MLL4 (unknown origin)
[7] = biological target: T3, Histone-lysine N-methyltransferase EHMT2 (Homo sapiens) (UniProt Q96KQ7); test: Covalent inhibition of recombinant G9a (unknown origin) assessed as adduct formation intensity by measuring mass after 12 hrs by mass spectrometric analysis
T3 sequence (whole entry): T1 sequence (Q96KQ7 whole entry)

[8] = biological target: T3, Histone-lysine N-methyltransferase EHMT2 (Homo sapiens); test: Covalent inhibition of recombinant G9a (unknown origin) assessed as adduct formation intensity by mass spectrometric analysis; conditions: time <= 16.0 hrs, TDE = time-dependent effect
MDA-MB-231 [9] = test: Reduction in H3K9me2 level in human MDA-MB-231 cells at 10 uM incubated for 48 hrs followed replaced with fresh medium measured after 24 hrs by Western blot analysis; assay type: functional, cell-based
MDA-MB-231 [10] = test: Reduction in H3K9me2 level in human MDA-MB-231 cells at 10 uM incubated for 48 hrs followed replaced with fresh medium measured after 48 hrs by Western blot analysis; assay type: functional, cell-based
PANC-1 [11] = test: In vivo antitumor activity against human PANC-1 cells xenografted in Balb/c mouse model assessed as reduction in H3K9me2 level in tumor at 2 mg/kg, ip treated for 22 days relative to control; assay type: functional, organism-based; conditions: time 22.0 day
[12] = Cmax in ICR mouse at 2 mg/kg, ip measured upto 24 hrs by LC-MS/MS analysis; assay type: ADME, organism-based; set-up: time < 24 hrs, dose 2 mg/kg, route ip; conditions: in vivo
[13] = AUC (0 to t) in ICR mouse at 2 mg/kg, ip measured upto 24 hrs by LC-MS/MS analysis; assay type: ADME, organism-based; set-up: dose 2 mg/kg, time < 24 hrs, route ip; conditions: in vivo
[14] = AUC (0 to infinity) in ICR mouse at 2 mg/kg, ip measured upto 24 hrs by LC-MS/MS analysis; assay type: ADME, organism-based; set-up: dose 2 mg/kg, time < 24 hrs, route ip; conditions: in vivo
[15] = MRT in ICR mouse at 2 mg/kg, ip measured upto 24 hrs by LC-MS/MS analysis; assay type: ADME, organism-based; conditions: in vivo

Sequence of Histone-lysine N-methyltransferase 2A (Q03164 1-2718 limits assumed): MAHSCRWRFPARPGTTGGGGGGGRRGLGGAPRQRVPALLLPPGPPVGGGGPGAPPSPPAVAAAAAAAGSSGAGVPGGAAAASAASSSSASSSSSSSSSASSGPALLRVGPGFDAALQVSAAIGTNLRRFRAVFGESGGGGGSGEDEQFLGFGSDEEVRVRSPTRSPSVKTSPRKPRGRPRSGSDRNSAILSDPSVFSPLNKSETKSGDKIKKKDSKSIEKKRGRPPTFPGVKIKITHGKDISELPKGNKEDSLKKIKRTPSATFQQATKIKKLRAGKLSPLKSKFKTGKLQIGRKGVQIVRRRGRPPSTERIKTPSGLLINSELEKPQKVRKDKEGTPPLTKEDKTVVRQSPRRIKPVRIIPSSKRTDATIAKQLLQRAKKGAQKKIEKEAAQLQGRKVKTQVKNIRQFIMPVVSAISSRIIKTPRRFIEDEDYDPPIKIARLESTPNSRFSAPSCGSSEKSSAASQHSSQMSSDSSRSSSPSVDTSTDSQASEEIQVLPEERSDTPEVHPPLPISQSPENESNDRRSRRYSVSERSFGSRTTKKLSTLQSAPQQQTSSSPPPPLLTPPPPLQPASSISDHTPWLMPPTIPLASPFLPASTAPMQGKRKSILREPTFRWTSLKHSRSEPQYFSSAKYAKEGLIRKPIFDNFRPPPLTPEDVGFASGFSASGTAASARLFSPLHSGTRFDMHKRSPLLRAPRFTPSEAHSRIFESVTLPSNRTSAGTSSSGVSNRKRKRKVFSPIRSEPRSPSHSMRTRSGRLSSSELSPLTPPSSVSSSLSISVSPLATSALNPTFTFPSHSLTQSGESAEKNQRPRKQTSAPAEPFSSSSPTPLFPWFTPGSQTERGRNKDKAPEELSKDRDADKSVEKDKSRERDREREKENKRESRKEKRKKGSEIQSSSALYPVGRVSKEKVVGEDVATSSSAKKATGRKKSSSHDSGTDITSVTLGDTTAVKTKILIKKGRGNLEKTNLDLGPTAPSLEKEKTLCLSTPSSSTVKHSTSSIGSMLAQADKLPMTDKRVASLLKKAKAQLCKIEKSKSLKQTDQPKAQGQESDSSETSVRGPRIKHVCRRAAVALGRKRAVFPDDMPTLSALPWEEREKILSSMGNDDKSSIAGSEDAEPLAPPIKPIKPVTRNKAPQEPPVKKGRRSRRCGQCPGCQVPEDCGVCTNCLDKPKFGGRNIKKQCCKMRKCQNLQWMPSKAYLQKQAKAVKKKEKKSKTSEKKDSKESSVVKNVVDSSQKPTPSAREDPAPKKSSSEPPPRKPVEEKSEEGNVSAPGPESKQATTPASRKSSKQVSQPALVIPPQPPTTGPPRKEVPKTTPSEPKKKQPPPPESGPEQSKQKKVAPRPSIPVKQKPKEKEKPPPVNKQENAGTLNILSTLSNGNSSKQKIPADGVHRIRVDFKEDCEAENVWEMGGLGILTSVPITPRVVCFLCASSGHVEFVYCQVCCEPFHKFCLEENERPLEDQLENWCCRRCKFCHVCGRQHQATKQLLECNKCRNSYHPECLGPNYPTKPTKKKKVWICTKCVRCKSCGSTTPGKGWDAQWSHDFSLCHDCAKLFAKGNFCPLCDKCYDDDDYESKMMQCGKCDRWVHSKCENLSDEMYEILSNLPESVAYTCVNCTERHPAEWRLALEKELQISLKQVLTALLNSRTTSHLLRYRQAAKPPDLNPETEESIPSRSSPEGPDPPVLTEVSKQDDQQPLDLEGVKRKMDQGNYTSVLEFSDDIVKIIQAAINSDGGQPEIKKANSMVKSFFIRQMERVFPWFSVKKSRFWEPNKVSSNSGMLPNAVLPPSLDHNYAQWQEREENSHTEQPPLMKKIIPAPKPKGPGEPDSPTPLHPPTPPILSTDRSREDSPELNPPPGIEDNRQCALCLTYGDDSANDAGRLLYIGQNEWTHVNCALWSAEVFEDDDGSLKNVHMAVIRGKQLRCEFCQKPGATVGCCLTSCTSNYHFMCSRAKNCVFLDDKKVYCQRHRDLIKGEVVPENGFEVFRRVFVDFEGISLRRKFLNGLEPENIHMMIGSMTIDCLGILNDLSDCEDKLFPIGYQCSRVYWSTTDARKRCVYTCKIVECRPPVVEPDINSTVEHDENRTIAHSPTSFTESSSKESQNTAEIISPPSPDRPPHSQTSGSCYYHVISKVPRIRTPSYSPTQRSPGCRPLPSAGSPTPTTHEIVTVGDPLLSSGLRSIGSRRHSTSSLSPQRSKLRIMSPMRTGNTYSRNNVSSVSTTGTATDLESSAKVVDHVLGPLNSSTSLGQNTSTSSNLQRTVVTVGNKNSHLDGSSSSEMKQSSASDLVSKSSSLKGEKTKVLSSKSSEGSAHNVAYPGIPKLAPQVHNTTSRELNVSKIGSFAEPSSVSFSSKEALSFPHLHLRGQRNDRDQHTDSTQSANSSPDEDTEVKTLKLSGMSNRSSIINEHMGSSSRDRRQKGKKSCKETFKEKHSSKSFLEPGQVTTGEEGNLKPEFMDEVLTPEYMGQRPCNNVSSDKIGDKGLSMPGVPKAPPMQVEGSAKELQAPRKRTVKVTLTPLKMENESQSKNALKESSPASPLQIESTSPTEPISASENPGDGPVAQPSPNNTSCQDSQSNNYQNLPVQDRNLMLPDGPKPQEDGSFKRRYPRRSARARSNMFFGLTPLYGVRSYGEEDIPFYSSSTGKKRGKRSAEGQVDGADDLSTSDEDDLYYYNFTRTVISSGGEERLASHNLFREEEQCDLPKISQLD
Sequence of Histone-lysine N-methyltransferase 2A (Q03164 2719-3969 limits assumed): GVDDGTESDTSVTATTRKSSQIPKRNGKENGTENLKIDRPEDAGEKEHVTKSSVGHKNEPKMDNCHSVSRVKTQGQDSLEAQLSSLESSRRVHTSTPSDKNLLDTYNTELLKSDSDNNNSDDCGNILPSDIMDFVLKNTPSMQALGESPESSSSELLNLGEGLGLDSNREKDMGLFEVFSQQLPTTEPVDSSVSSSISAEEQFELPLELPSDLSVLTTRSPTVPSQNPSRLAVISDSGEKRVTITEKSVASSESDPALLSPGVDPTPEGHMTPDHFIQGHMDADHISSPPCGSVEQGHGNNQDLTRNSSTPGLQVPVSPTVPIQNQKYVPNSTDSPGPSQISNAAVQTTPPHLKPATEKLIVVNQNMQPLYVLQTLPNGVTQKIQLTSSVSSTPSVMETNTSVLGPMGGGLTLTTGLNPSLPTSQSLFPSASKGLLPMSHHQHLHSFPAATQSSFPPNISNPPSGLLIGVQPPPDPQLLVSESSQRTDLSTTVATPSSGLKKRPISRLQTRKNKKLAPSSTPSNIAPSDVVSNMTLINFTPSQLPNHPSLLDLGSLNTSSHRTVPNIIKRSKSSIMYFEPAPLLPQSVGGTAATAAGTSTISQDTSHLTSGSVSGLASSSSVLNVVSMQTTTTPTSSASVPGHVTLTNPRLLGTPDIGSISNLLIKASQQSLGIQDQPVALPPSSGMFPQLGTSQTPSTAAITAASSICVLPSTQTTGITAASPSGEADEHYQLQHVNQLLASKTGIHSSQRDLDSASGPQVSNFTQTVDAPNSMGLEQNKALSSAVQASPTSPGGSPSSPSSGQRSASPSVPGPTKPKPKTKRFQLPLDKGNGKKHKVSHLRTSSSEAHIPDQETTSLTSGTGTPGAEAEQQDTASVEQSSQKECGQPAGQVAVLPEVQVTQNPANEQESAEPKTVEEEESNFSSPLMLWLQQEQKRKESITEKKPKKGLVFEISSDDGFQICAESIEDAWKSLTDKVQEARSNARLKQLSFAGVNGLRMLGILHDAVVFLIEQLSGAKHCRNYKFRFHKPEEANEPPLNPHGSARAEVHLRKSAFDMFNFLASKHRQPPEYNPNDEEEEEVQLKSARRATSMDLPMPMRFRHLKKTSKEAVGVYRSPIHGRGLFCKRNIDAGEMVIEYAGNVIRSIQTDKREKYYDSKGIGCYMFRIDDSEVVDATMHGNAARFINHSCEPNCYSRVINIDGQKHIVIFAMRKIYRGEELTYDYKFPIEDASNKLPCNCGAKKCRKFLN

C=CC(=O)N(C)c1nc(NC2CCN(C)CC2)c2cc(OC)c(OCCCN3CCCC3)cc2n1
IC50 [1]: 0.0085 µM | IC50 (PANC-1 [2]): 2.68 µM | half-life at 0.1 µM [3]: 71.2 min | IC50 [4]: 6.68 µM | IC50 [5]: > 20 µM | IC50 [6]: > 20 µM | Activity [7]: 60700 Da | inhibition [8]: Tde | inhibition (MDA-MB-231 [9]): Active | inhibition (MDA-MB-231 [10]): inactive | inhibition (PANC-1 [11]): Active | Cmax [12]: 316 ng/mL | AUC(0-t) at 24 h [13]: 208 ng·h/mL | AUC(0-inf) [14]: 214 ng·h/mL | MRT [15]: 36.6 min
